# According to patent US20240368230A1, “CELL-PENETRATING PEPTIDES COMPRISING MULTIPLE 5-MER ALPHA-HELIX FRAGMENTS AND USES THEREOF” (ArtProBio Co., Ltd., priority 2023, published 2024):
# Entries after “also recorded” stand apart in the source; their conditions may differ. Like-named read-outs stand apart in the source and are kept apart here. Where a SMILES comes first, the peptide text is derived from it.
# Legend:
# [1] = test system: BALB/c nude mice; assay: In-vivo fluorescence imaging (IVIS) of living mice, targeting
# Method: All animal experimental procedures including sample administration and euthanasia were performed in accordance with the strict guidelines of the Yonsei University Health System Institutional Animal Care and Use Committee. Female 7-week BALB/c nude mice were purchased from Orient Bio Company (Korea). Fluorescence-labeled peptide (sample) (10 mg/kg) was injected via the lateral tail vein of the mice. Fluorescence images were acquired at different times (0, 4, 8 and 12 hours) using an in-vivo imaging system (IVIS; PerkinElmer, USA) and the images were analyzed with the Living Image software (PerkinElmer).
# Female 7-week-old BALB/c nude mice were injected IV (intravenously) with the cell-penetrating peptide prepared in Example 10 (CPP10) at 10 mg/kg or 1 mg/kg via the lateral tail vein and imaged using IVIS (in-vivo imaging system) (PerkinElmer, USA) 4 hours later. The images were analyzed with the Living Image software (PerkinElmer). The mice were analyzed from the top, bottom (belly) and side positions (FIG. 44A). Then, after administering the same volume of the cell-penetrating peptide prepared in Example 10 (CPP10) at 10 mg/kg via IV (intravenous) or IP (intraperitoneal) injection, the mice were imaged 4 hours later (FIG. 44B).
# Next, female 7-week-old BALB/c nude mice were injected IV (intravenously) with the cell-penetrating peptide of Example 10 (CPP10), the cell-penetrating peptide of Example 11 (CPP11) or the cell-penetrating peptide of Example 14 (CPP11d) at 10 mg/kg via the lateral tail vein, and they were imaged 30 minutes and 6 hours later using IVIS (in-vivo imaging system) (PerkinElmer, USA). The images were analyzed with the Living Image software (PerkinElmer) (FIG. 44C). In FIGS. 44A and 44B, the cell-penetrating peptides were labeled with TAMRA (5 (6)-carboxytetramethylrhodamine). In FIG. 44C, the cell-penetrating peptides were labeled with FAM.
# The images were analyzed with the Living Image software (PerkinElmer) (FIGS. 50 and 51).
# The cell-penetrating peptide prepared in Example 11 (CPP11) was also administered at the same concentration and then analyzed by IVIS 1 hour later (FIG. 51). The cell-penetrating peptide was used after labeling with FAM.
# 4 hours later, the mice were imaged using IVIS (in-vivo imaging system) (PerkinElmer, USA) and the images were analyzed with the Living Image software (PerkinElmer) (FIG. 53).
# The cell-penetrating peptide prepared in Example 11 (CPP11) was also administered at the same concentration and then analyzed by IVIS 1 hour later (FIG. 53). The cell-penetrating peptide was used after labeling with FAM.
# Female 7-week-old BALB/c nude mice were injected IV (intravenously) with 200 μL of the cell-penetrating peptide of Example 11 (CPP11) or the existing cell-penetrating peptides (Rev ARM, Tat, penetratin and R8) at 5 mg/kg via the lateral tail vein. 4 hours later, the mice were imaged using IVIS (in-vivo imaging system) (PerkinElmer, USA) and the images were analyzed with the Living Image software (PerkinElmer) (FIGS. 54 and 55). The cell-penetrating peptides were used after labeling with FAM.
# [2] = test system: HeLa cells
# Method: (§3) Cytotoxicity was analyzed using the WST-8 (5-(2,4-disulfophenyl)-3-(2-methoxy-4-nitrophenyl)-2-(4-nitrophenyl)-2H-tetrazolium, water-soluble tetrazolium). First, HeLa cells were inoculated onto a 96-well plate (5,000 cells/well) and cultured for 24 hours in a DMEM medium containing 10% FBS. After washing with PBS, the peptide (sample) of various concentrations was added to Opti-MEM. 24 hours later, the WST-8 reagent was added and incubation was conducted for 1 hour. Then, WST-8 formazan was quantified using a Victor X5 multilabel plate reader (Perkin Elmer, USA).
# [3] = CD spectroscopy of cell-penetrating peptides (helicity); conditions: for secondary structure / helix stabilization by CD: 10 mM potassium phosphate, pH 7.4, 20° C.
# Method: The concentration of peptides/proteins was 5-20 μM in general. Spectra were obtained using a Jasco J-1500 CD spectrometer (JASCO, Japan) or a Chirascan CD spectrometer (Applied Photophysics, UK). Scanning was carried out using a cuvette with a path length of 1 mm. MRE (mean residue ellipticity) was calculated per amino acid residue.
# The cell-penetrating peptides (CPP1 TO 13 and CPP11d) were dissolved respectively in 10 mM potassium phosphate. The analysis was performed under the condition of pH 7.4 and 20° C.
# [4] = test system: HeLa cells; assay: Flow cytometry cellular uptake efficiency, HeLa; type: cell-based
# Method: (§1) After washing with PBS, the cells were treated with the fluorescence-labeled peptide (sample) for 4 hours. Then, after washing twice with PBS, the cells were incubated with trypsin (1 mg/mL) for 15 minutes and the peptide bound to the cell surface was removed. The cells were centrifuged at 1,200 rpm for 5 minutes, washed twice with PBS and then suspended in a PBS buffer containing 10% non-enzymatic cell dissociation solution. The fluorescence intensity of the internalized peptide was measured using a BD LSR II flow cytometer (BD Biosciences, USA).
# (§2) The cell-penetrating peptides (CPP10, CPP11 and Tat) were labeled with FAM (5 (6)-carboxyfluorescein) at the N-terminal. MFI stands for mean fluorescence intensity. Untreated cells were used as control groups (cell only). The cellular uptake efficiency refers to the degree of penetration into cells.
# Flow cytometry was performed after treating Hela cells with the cell-penetrating peptide prepared in Example 11 (CPP11) of different concentrations (4 μM, 30 μM, 60 μM, 90 μM, 120 μM, 270 μM and 500 μM).
# [5] = test system: HCT116 cells; assay: Flow cytometry cellular uptake efficiency, HCT116; type: cell-based; conditions: HCT116, 30 μM, FAM-labeled
# Method: as §1, §2
# [6] = test system: 293T cells; assay: Flow cytometry cellular uptake efficiency, 293T; type: cell-based; conditions: 30 μM, FAM-labeled
# Method: as §1, §2
# [7] = test system: HeLa cells; assay: Cytotoxicity analysis with WST-8 reagent; conditions: 24 hours, various concentrations
# Method: as §3
# [8] = test system: IIB RNA; assay: UV melting analysis of IIB RNA and cRev-IIB complex; type: physicochemical, HIV-1; conditions: 260 nm; cRev/IIB ratio 1; IIB RNA only as control
# Method: UV melting experiments for free RNA (2 μM) and a protein-RNA complex (1:1 molar ratio) were conducted using an Agilent 8453 diode array UV-Vis spectrophotometer equipped with a Peltier temperature controller. Spectra were measured at 260 nm using a cuvette with a path length of 1 cm under the heating rate condition of 2° C./min. The measurement was repeated 3 times and the average was taken. Prior to the measurement, the RNA sample was heated at 90° C. for 2 minutes and then annealed on ice. The melting temperature (Tm) was calculated with the Origin software (OriginLab, USA) using a two-state or multi-state model.
# A complex (cRev-IIB complex) was prepared by mixing the cRev prepared in Preparation Example 2 with IIB RNA and UV melting experiment was performed. The cRev/IIB ratio was 1. For the control group (IIB RNA only), only IIB RNA was used without cRev.
# [9] = CD equilibrium thermal unfolding; type: physicochemical; conditions: CD at 4-84° C., two-state coil-helix transition
# Method: For the cell-penetrating peptide prepared in Example 11 (CPP11), CD spectra were measured under various temperature conditions (4° C., 20° C., 36° C., 52° C., 68° C. and 84° C.) to analyze thermal stability through equilibrium thermal unfolding.
# [10] = test system: HeLa cells; assay: Cellular localization by CLSM; type: cell-based; conditions: 10 μM FAM-labeled, 2 hours, DAPI
# Method: A DMEM medium containing 10% FBS and an 8-well Lab-Tek II chamber slide (Thermo Fisher Scientific, USA) were prepared. […] […] The cultured cells were washed 5 times with PBS. The living cells were visualized using an LSM 880 confocal microscope (Carl Zeiss, Germany).
# The cell-penetrating peptides were labeled with FAM.
# [11] = test system: BALB/c nude mice; assay: IVIS imaging of extracted organs, head and cochlea after IV injection; type: in vivo
# Method: After extracting major organs (ear, brain, heart, lung, liver, spleen and kidney) from the euthanized experimental animals, the tissues were imaged using IVIS (in-vivo imaging system) (PerkinElmer, USA) and the images were analyzed with the Living Image software (PerkinElmer).
# [12] = FAM-labeled, IV 10 mg/kg, 30 minutes and 6 hours
# [13] = extracted organs, IV 10 mg/kg, 4 hours
compound,measurement,setting,value
UaUgarrnUaUqarrnUaUqarrnUaUqarrnUaU [CPP11d],in-vivo targeting site,"[1]; mouse, in vivo, iv, 10 mg/kg",targeted the ear
same,cytotoxicity (WST-8),[2],hardly show cytotoxicity
same,secondary structure / helix stabilization by CD,[3],perfect left-handed helical conformation
C[C@H](NC(=O)[C@H](CCC(N)=O)NC(=O)C(C)(C)NC(=O)[C@H](C)NC(=O)C(C)(C)NC(=O)[C@H](CC(N)=O)NC(=O)[C@H](CCCNC(=N)N)NC(=O)[C@H](CCCNC(=N)N)NC(=O)[C@H](C)NC(=O)[C@H](CCC(N)=O)NC(=O)C(C)(C)NC(=O)[C@H](C)NC(=O)C(C)(C)NC(=O)[C@H](CC(N)=O)NC(=O)[C@H](CCCNC(=N)N)NC(=O)[C@H](CCCNC(=N)N)NC(=O)[C@H](C)NC(=O)[C@H](CCC(N)=O)NC(=O)C(C)(C)NC(=O)[C@H](C)NC(=O)C(C)(C)N)C(=O)N[C@@H](CCCNC(=N)N)C(=O)N[C@@H](CCCNC(=N)N)C(=O)N[C@@H](CC(N)=O)C(=O)NC(C)(C)C(=O)N[C@@H](C)C(=O)NC(C)(C)C(N)=O [CPP10] (HELM PEPTIDE1{[Aib].A.[Aib].Q.A.R.R.N.[Aib].A.[Aib].Q.A.R.R.N.[Aib].A.[Aib].Q.A.R.R.N.[Aib].A.[Aib].[am]}$$$$V2.0; N-terminus assumed),cell-penetrating ability compared with Tat,"[4]; HeLa, 30 μM, FAM-labeled",significantly superior
same,cell-penetrating ability compared with Tat,[5],significantly superior
same,cell-penetrating ability compared with Tat,[6],significantly superior
same,in-vivo targeting site,[1]; [12],targeted the ear
same,targeting efficiency IV versus IP,"[1]; TAMRA-labeled, 10 mg/kg, 4 hours",higher targeting efficiency when administered by IV injection rather than by IP injection
same,in-vivo fluorescence distribution,"[1]; TAMRA-labeled, IV tail vein, 10 mg/kg or 1 mg/kg, 4 hours",bright fluorescence was observed in the ear
same,cytotoxicity (WST-8),[7],hardly show cytotoxicity
same,secondary structure / helix stabilization by CD,[3],significantly higher than those of CPP8 and CPP9
"GGACCUGGUAUGGGCGCAGCGCAAGCUGACGGUACAGGCCAGGUCC (listed as RNA, chemistry not given here) [IIB RNA, stem-loop IIB region of HIV-1 RRE RNA]",Tm (UV melting),[8],60.6 °C
C[C@H](NC(=O)[C@H](CCC(N)=O)NC(=O)C(C)(C)NC(=O)[C@H](C)NC(=O)C(C)(C)NC(=O)[C@H](CC(N)=O)NC(=O)[C@H](CCCNC(=N)N)NC(=O)[C@H](CCCNC(=N)N)NC(=O)[C@H](C)NC(=O)[C@H](CCC(N)=O)NC(=O)C(C)(C)NC(=O)[C@H](C)NC(=O)C(C)(C)NC(=O)[C@H](CC(N)=O)NC(=O)[C@H](CCCNC(=N)N)NC(=O)[C@H](CCCNC(=N)N)NC(=O)[C@H](C)NC(=O)[C@H](CCC(N)=O)NC(=O)C(C)(C)NC(=O)[C@H](C)NC(=O)C(C)(C)NC(=O)[C@H](CC(N)=O)NC(=O)[C@H](CCCNC(=N)N)NC(=O)[C@H](CCCNC(=N)N)NC(=O)[C@H](C)NC(=O)[C@H](CCC(N)=O)NC(=O)C(C)(C)NC(=O)[C@H](C)NC(=O)C(C)(C)N)C(=O)N[C@@H](CCCNC(=N)N)C(=O)N[C@@H](CCCNC(=N)N)C(=O)N[C@@H](CC(N)=O)C(=O)NC(C)(C)C(=O)N[C@@H](C)C(=O)NC(C)(C)C(N)=O [CPP11] (HELM PEPTIDE1{[Aib].A.[Aib].Q.A.R.R.N.[Aib].A.[Aib].Q.A.R.R.N.[Aib].A.[Aib].Q.A.R.R.N.[Aib].A.[Aib].Q.A.R.R.N.[Aib].A.[Aib].[am]}$$$$V2.0; N-terminus assumed),melting temperature (CD thermal unfolding),[9],39.4 °C
same,cellular uptake efficiency relative to Tat,"[4]; HeLa, 30 μM, 4 hours, FAM-labeled, MFI",≥ 4 times
same,MFI / uptake efficiency versus concentration,"[4]; Hela cells, 4-500 μM",uptake efficiency increases gradually with the concentration
same,cellular uptake efficiency relative to Tat,"[5]; 4 hours, MFI",≥ 4 times
same,cellular uptake efficiency relative to Tat,"[6]; 4 hours, MFI",≥ 4 times
same,cellular localization,[10],mainly located outside the nucleus
same,accumulation efficiency in the ear,"[1]; FAM-labeled, IV 5 mg/kg, 1 hour, compared with CPP14, 15 and 17",much higher accumulation efficiency in the ear
same,bioaccumulation,"[1]; FAM-labeled, IV 5 mg/kg, 4 hours, comparison with existing CPPs",accumulated in the ear tissue at a significantly high level
same,in-vivo targeting site,[1]; [12],targeted the ear
same,time to accumulation in the ear,[11]; IV 10 mg/kg,≤ 4 h
same,excretion route,"[11]; IV 10 mg/kg, 4 hours",excreted out of the body through the liver and kidneys
same,accumulation in the head (outside and inside),"[11]; IV 10 mg/kg, 4 hours, versus PBS, 10 mg/kg","accumulated effectively in the facial area, especially in the ear, in large quantities; also recorded: accumulated deeply not only in the ear but also in the nose"
same,"accumulation in heart, lung and spleen",[11]; [13],"not accumulated in the heart, lung and spleen tissues"
same,accumulation rate in the brain,[11]; [13],very low
same,main target organ,[11]; [13],targets mainly the ear
same,accumulation in the inner ear (cochlea),"[11]; separated cochlea, IV, versus PBS (w/o treatment)",significantly remarkable accumulation in the inner ear (cochlea)
same,cytotoxicity (WST-8),[7],hardly show cytotoxicity
same,secondary structure / helix stabilization by CD,[3],perfect α-helical structure
same,dependence of [θ]222/[θ]208 on concentration,"[3]; 5-200 μM, 20° C.",not affected by concentration
